Assay results reported in patent EP4596546A1, “SULFONAMIDE COMPOUND, AND HARMFUL-ARTHROPOD EXTERMINATION COMPOSITION CONTAINING SAME” (priority 2022, dated 2024).

How the values were obtained:
Assay type in all cases: in vivo
[1] = system: cotton worm (Spodoptera litura); assay: Test Method 3: sprayed cabbage, cut aerial part, second-instar larvae of cotton worm; conditions: 120 h, spray 20 mL/seedling, after 5 days
Experimental: (§1) Next, Test Examples are used to show effects of the Present compounds on harmful arthropods. In the following Test Examples, the tests were carried out at 25°C. Each test compound is made to a formulation according to a similar method to that described in the Formulation Example 1, and thereto is added water containing 0.03 v/v% of Shindain (registered trademark) to prepare a diluted solution containing a prescribed concentration of the test compound. Cabbage (Brassicae oleracea) seedling (on the developmental stage of the second to third true leaf) is planted in a container, and the diluted solutions are sprayed to the seedling at a ratio of 20 mL/seedling. Thereafter, the aerial part of the seedling is cut out and then is installed into a container in which a filter paper is placed at the bottom of the container. Five of second-instar larvae of cotton worm (Spodoptera litura) are released into the container. After 5 days, the number of the surviving insects is counted, and the mortality of insects is calculated by the following equation. [formula]

[2] = system: diamondback moth (Plutella xylostella); assay: Test Method 4: sprayed cabbage, cut aerial part, second-instar larvae of diamondback moth; conditions: 120 h, spray 20 mL/seedling, after 5 days
Experimental: as §1, with “diamondback moth (Plutella xylostella)” for “cotton worm (Spodoptera litura)”

[3] = system: Western corn rootworm (Diabrotica virgifera virgifera); assay: whole plant or invertebrate; conditions: 120 h
Experimental: (§2) Next, Test Examples are used to show effects of the Present compounds on harmful arthropods. In the following Test Examples, the tests were carried out at 25°C.
Each 1 mg of the test compounds is dissolved in 50 µL of a mixed solution consisting of 5% of polyoxyethylene sorbitan mono-cocoate and 95% of acetone by volume ratio. Thereto is added water containing 0.03% by volume of Shindain (registered trademark) to prepare a diluted solution containing a prescribed concentration of the test compound.
A young seedling of corn (Zea mays) is immersed into the diluted solution for 30 seconds. Thereafter, two seedlings are installed in a plastic petri dish (90 mm […]), and 10 of second-instar larvae of Western corn rootworm (Diabrotica virgifera virgifera) are released into the dish. After 5 days, the number of the dead insects is counted, and the mortality of insects is calculated by the following equation. Mortality (%) = (Numberofdeadinsects/10) × 100 [formula]

[4] = system: cotton worm (Spodoptera litura); assay: Test Method 9: sprayed cabbage seedling, third-instar larvae of cotton worm (formulation per Formulation Example 5); conditions: 144 h, spray 20 mL/seedling, after 6 days
Experimental: as §2
(§3) Each test compound is made to a formulation according to a similar method to that described in the Formulation Example 5, and thereto is added water containing 0.03 v/v% of Shindain (registered trademark) to prepare a diluted solution containing a prescribed concentration of the test compound.
(§4) Cabbage (Brassicae oleracea) seedling (on the developmental stage of the third to fourth true leaf) is planted in a container, and the diluted solutions are sprayed to the seedling at a ratio of 20 mL/seedling. Thereafter, ten of third-instar larvae of cotton worm (Spodoptera litura) are released. After 6 days, the number of the surviving insects is counted, and the mortality of insects is calculated by the following equation. [formula]

[5] = system: diamondback moth (Plutella xylostella); assay: Test Method 10: sprayed cabbage seedling, third-instar larvae of diamondback moth (formulation per Formulation Example 5); conditions: 120 h, spray 20 mL/seedling, after 5 days
Experimental: as §2, §3
as §4, with “diamondback moth (Plutella xylostella)” for “cotton worm (Spodoptera litura)”, “5” for “6”

[6] = system: common house mosquito (Culex pipiens pallens); assay: Test Method 12: last instar larvae of common house mosquito released into diluted solution; conditions: 24 h, after 1 day
Experimental: as §2
Each test compound is formulated to a test formulation according to a similar method to that described in the Formulation Example 1, and water is added in preparing for a diluted solution containing a prescribed concentration of the test compound.
Into the diluted solution, 30 last instar larvae of common house mosquito (Culex pipiens pallens) are released, and after 1 day, the state of the house mosquito larvae is examined, and the mortality is calculated by the following equation. [formula]

[7] = system: German cockroach (Blattella germanica); assay: Test Method 6: coated glass vial contact test, German cockroach male adults; conditions: 72 h, 40 mg/m^2 on vial inner face, 3 days
Experimental: as §2
An acetone solution which is adjusted to 800 ppm of each test compound is poured into a 50 mL glass vial, and the test compound is coated uniformly on inner face of the vial so as to 40 mg/m^2 of the test compound treated, and the vial is then dried.
5 German cockroach (Blattella germanica) male adults are released into the treated vial, and the vial is then covered with lid. After the prescribed time, the state of the German cockroach is examined, and the mortality is calculated by the following equation. [formula]

[8] = system: housefly (Musca domestica); assay: Test Method 8: coated glass vial contact test, housefly female adults; conditions: 24 h, 40 mg/m^2 on vial inner face, 1 day
Experimental: as §2
An acetone solution which is adjusted to 800 ppm of each test compound is poured into a 20 mL glass vial, and the test compound is coated uniformly on inner face of the vial so as to 40 mg/m^2 of the test compound treated, and the vial is then dried.
5 housefly (Musca domestica) female adults are released into the treated vial, and the vial is then covered with lid. After the prescribed time, the state of the housefly is examined, and the mortality is calculated by the following equation. [formula]

[9] = system: Haemaphysalis longicornis; assay: Test Method 7: coated glass vial contact test, Haemaphysalis longicornis nymphs; conditions: 48 h, 100 mg/m^2 on vial inner face, 2 days
Experimental: An acetone solution which is adjusted to 2000 ppm of each test compound is poured into a 20 mL glass vial, and the test compound is coated uniformly on inner face of the vial so as to 100 mg/m^2 of the test compound treated, and the vial is then dried.
5 Haemaphysalis longicornis nymphs are released into the treated vial, and the vial is then covered with lid. After the prescribed time, the state of the Haemaphysalis longicornis is examined, and the mortality is calculated by the following equation.

SMILES | mortality at 500 ppm [1] [%] | mortality at 500 ppm [2] [%] | mortality at 200 ppm [3] [%] | mortality at 200 ppm [4] [%] | mortality at 50 ppm [5] [%] | mortality at 200 ppm [5] [%] | mortality at 3.5 ppm [6] [%] | mortality at 40 mg/m2, 40 mg/m2 [7] [%] | mortality at 40 mg/m2, 40 mg/m2 [8] [%] | mortality at 100 mg/m2, 100 mg/m2 [9] [%]
CNS(=O)(=O)c1c(-c2cnc(OCC(F)(F)C(F)(F)F)n(C)c2=O)nc2ccc(C(F)(F)F)cn12 [compound 9] | ≥ 80 | ≥ 80 | ≥ 80 | ≥ 80 | ≥ 80 | ≥ 80 | > 90 | – | – | –
CN(C)S(=O)(=O)c1c(-c2ccc(OCC(F)(F)C(F)(F)F)n(C)c2=O)nc2ccc(Br)cn12 [compound 3] | ≥ 80 | ≥ 80 | ≥ 80 | ≥ 80 | ≥ 80 | ≥ 80 | – | – | – | –
CN(C)S(=O)(=O)c1c(-n2cnc3ccc(OC(F)(F)F)cc3c2=O)nc2ccc(I)cn12 [compound 11] | ≥ 80 | ≥ 80 | ≥ 80 | ≥ 80 | ≥ 80 | ≥ 80 | – | – | – | –
Cn1c(OCC(F)(F)C(F)(F)F)ncc(-c2nc3ccc(Br)cn3c2S(=O)(=O)NC2CC2)c1=O [compound 5] | ≥ 80 | ≥ 80 | – | ≥ 80 | ≥ 80 | ≥ 80 | > 90 | ≥ 80 | ≥ 80 | –
CNS(=O)(=O)c1c(-n2cnc3ccc(OC(F)(F)F)cc3c2=O)nc2ccc(I)cn12 [compound 12] | ≥ 80 | ≥ 80 | ≥ 80 | ≥ 80 | ≥ 80 | ≥ 80 | – | – | – | –
CNS(=O)(=O)c1c(-c2cnc(OCC(F)(F)C(F)(F)F)n(C)c2=O)nc2cc(I)ccn12 [compound 8] | ≥ 80 | ≥ 80 | ≥ 80 | ≥ 80 | ≥ 80 | ≥ 80 | > 90 | ≥ 80 | ≥ 80 | –
CNS(=O)(=O)c1c(-c2cnc(OCC(F)(F)C(F)(F)F)n(C)c2=O)nc2cc(C(F)(F)F)ccn12 [compound 10] | ≥ 80 | ≥ 80 | ≥ 80 | ≥ 80 | ≥ 80 | ≥ 80 | > 90 | ≥ 80 | ≥ 80 | –
CNS(=O)(=O)c1c(-c2ccc(OCC(F)(F)C(F)(F)F)n(C)c2=O)nc2ccc(I)cn12 [compound 4] | ≥ 80 | ≥ 80 | ≥ 80 | ≥ 80 | ≥ 80 | ≥ 80 | > 90 | – | ≥ 80 | ≥ 80
CCNS(=O)(=O)c1c(-c2ccc(OCC(F)(F)C(F)(F)F)n(C)c2=O)nc2ccc(Br)cn12 [compound 2] | ≥ 80 | ≥ 80 | ≥ 80 | ≥ 80 | ≥ 80 | ≥ 80 | – | – | – | –
CNS(=O)(=O)c1c(-c2ccc(OCC(F)(F)C(F)(F)F)n(C)c2=O)nc2ccc(C(F)(F)F)cn12 [compound 1] | ≥ 80 | ≥ 80 | – | ≥ 80 | ≥ 80 | ≥ 80 | > 90 | – | ≥ 80 | –
CNS(=O)(=O)c1c(-c2cnc(OCC(F)(F)C(F)(F)F)n(C)c2=O)nc2ccc(I)cn12 [compound 7] | ≥ 80 | ≥ 80 | ≥ 80 | ≥ 80 | ≥ 80 | ≥ 80 | > 90 | – | ≥ 80 | –
Cn1c(OCC(F)(F)C(F)(F)F)ncc(-c2nc3ccc(Br)cn3c2S(N)(=O)=O)c1=O [compound 6] | ≥ 80 | ≥ 80 | ≥ 80 | ≥ 80 | ≥ 80 | ≥ 80 | – | – | – | –
